Measured values: ChEMBL document CHEMBL1134926, “Structure-Activity relationships of 2-substituted 5,7-Diarylcyclopenteno[1,2-b]pyridine-6-carboxylic acids as a novel class of endothelin receptor antagonists” (Bioorg Med Chem Lett, 2002)

Experiments:
[1] = biological target: T1, Endothelin receptor type B (Homo sapiens, UniProt P24530); experiment: Inhibitory activity against I-labeled ET-1 binding to Endothelin B receptor
T1 sequence (P24530 whole entry): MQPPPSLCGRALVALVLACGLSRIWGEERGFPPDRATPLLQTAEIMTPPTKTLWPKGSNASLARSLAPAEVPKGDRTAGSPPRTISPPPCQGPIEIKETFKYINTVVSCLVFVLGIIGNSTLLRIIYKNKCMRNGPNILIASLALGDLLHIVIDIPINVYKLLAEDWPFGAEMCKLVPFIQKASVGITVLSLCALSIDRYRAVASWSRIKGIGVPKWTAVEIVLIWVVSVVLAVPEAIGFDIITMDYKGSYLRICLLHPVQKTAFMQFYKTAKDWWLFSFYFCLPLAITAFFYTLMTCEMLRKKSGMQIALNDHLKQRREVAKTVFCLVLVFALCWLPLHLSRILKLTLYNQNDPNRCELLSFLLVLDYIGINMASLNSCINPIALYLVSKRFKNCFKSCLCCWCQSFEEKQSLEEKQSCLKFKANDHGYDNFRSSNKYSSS

[2] = biological target: Endothelin receptor, ET-A/ET-B (Homo sapiens) (UniProt P24530+P25101); experiment: Selectivity was calculated as the ratio of IC50 of Endothelin B receptor / IC50 of Endothelin A receptor; type: protein assay
[3] = biological target: T2, Endothelin-1 receptor (Homo sapiens, UniProt P25101); experiment: Inhibitory activity against I-labeled ET-1 binding to Endothelin A receptor
T2 sequence (P25101 whole entry): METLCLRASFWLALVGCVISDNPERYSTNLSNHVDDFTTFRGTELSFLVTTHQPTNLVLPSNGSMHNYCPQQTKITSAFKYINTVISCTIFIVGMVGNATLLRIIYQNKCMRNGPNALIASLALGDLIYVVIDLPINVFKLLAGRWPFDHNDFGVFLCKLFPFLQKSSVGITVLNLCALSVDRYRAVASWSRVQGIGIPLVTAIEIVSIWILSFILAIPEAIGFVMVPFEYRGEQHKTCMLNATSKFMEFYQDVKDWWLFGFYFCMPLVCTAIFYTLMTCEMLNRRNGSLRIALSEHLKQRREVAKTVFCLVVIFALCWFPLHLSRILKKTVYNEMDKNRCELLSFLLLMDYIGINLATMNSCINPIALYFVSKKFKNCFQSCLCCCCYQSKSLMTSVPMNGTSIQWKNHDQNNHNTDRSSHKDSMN

| Structure (SMILES) | IC50 [1] | Ratio [2] | IC50 [3] |
| --- | --- | --- | --- |
| COc1ccc([C@@H]2c3nc(-c4ccccc4)ccc3C(c3ccc4c(c3)OCO4)[C@H]2C(=O)O)cc1 (single isomer, unassigned) | 130 nM | 8.7 | 15 nM |
| CCOCc1ccc2c(n1)[C@@H](c1ccc(OC)cc1)[C@H](C(=O)O)C2c1ccc2c(c1)OCO2 (single isomer, unassigned) | 140 nM | 270 | 0.51 nM |
| COc1ccc([C@@H]2c3nc(C4CC4)ccc3[C@H](c3ccc4c(c3)OCO4)[C@H]2C(=O)O)cc1 | 63 nM | 39 | 1.6 nM |
| COc1ccc([C@@H]2c3nc(CCC(=O)O)ccc3C(c3ccc4c(c3)OCO4)[C@H]2C(=O)O)cc1 (single isomer, unassigned) | 530 nM | 3.5 | 150 nM |
| CCNCc1ccc2c(n1)[C@@H](c1ccc(OC)cc1)[C@H](C(=O)O)C2c1ccc2c(c1)OCO2 (single isomer, unassigned) | 940 nM | 130 | 7 nM |
| CCCNc1ccc2c(n1)[C@@H](c1ccc(OC)cc1)[C@H](C(=O)O)C2c1ccc2c(c1)OCO2 (single isomer, unassigned) | 63 nM | 520 | 0.12 nM |
| COc1ccc([C@@H]2c3nc(C)ccc3[C@H](c3ccc4c(c3)OCO4)[C@H]2C(=O)O)cc1 | 100 nM | 18 | 5.7 nM |
| COc1ccc([C@@H]2c3nc(CCCO)ccc3C(c3ccc4c(c3)OCO4)[C@H]2C(=O)O)cc1 (single isomer, unassigned) | 190 nM | 350 | 0.55 nM |
| CCCOc1ccc2c(n1)[C@@H](c1ccc(OC)cc1)[C@H](C(=O)O)C2c1ccc2c(c1)OCO2 (single isomer, unassigned) | 65 nM | 71 | 0.92 nM |
| COc1ccc([C@@H]2c3ncccc3[C@H](c3ccc4c(c3)OCO4)[C@H]2C(=O)O)cc1 | 410 nM | 170 | 2.4 nM |
| CCc1ccc2c(n1)[C@@H](c1ccc(OC)cc1)[C@H](C(=O)O)[C@H]2c1ccc2c(c1)OCO2 | 87 nM | 19 | 4.5 nM |

These reach a lower IC50 [1]. Values come first.

| IC50 [1] | Ratio [2] | IC50 [3] | Structure (SMILES) |
| --- | --- | --- | --- |
| 8.4 nM | 26 | 0.32 nM | COc1ccc([C@@H]2c3nc(CC(C)C)ccc3[C@H](c3ccc4c(c3)OCO4)[C@H]2C(=O)O)cc1 |
| 11 nM | 52 | 0.21 nM | CCCCc1ccc2c(n1)[C@@H](c1ccc(OC)cc1)[C@H](C(=O)O)[C@H]2c1ccc2c(c1)OCO2 |
| 14 nM | 70 | 0.2 nM | C=CCCc1ccc2c(n1)[C@@H](c1ccc(OC)cc1)[C@H](C(=O)O)[C@H]2c1ccc2c(c1)OCO2 |
| 14 nM | 4.4 | 3.2 nM | COc1ccc([C@@H]2c3nc(N(C)C(C)C)ccc3C(c3ccc4c(c3)OCO4)[C@H]2C(=O)O)cc1 (single isomer, unassigned) |
| 53 nM | 6.5 | 8.2 nM | CCCSc1ccc2c(n1)[C@@H](c1ccc(OC)cc1)[C@H](C(=O)O)C2c1ccc2c(c1)OCO2 (single isomer, unassigned) |
| 21 nM | 9.5 | 2.2 nM | COc1ccc([C@@H]2c3nc(N4CCCC4)ccc3C(c3ccc4c(c3)OCO4)[C@H]2C(=O)O)cc1 (single isomer, unassigned) |
| 9.1 nM | 4.8 | 1.9 nM | CCCCCc1ccc2c(n1)[C@@H](c1ccc(OC)cc1)[C@H](C(=O)O)[C@H]2c1ccc2c(c1)OCO2 |
| 42 nM | 420 | 0.1 nM | COc1ccc([C@@H]2c3nc(NC(C)C)ccc3C(c3ccc4c(c3)OCO4)[C@H]2C(=O)O)cc1 (single isomer, unassigned) |
| 30 nM | 81 | 0.37 nM | CCCc1ccc2c(n1)[C@@H](c1ccc(OC)cc1)[C@H](C(=O)O)[C@H]2c1ccc2c(c1)OCO2 |
